What all share (type): in vivo
Assay [1] has as its system Erysiphe graminis f. sp. tritici. Briefly: Test A: wheat powdery mildew, preventive spray on wheat seedlings. Conditions: 200 ppm, 100 = 100% disease control, 0 = no control relative to controls; for pest or weed control at 200 ppm: Blumeria graminis, 192 h, read-out: Test A disease control rating. The text has this:
(§1) General protocol for preparing test suspensions for Tests A-R: The test compounds were first dissolved in acetone in an amount equal to 3% of the final volume and then suspended at the desired concentration (in ppm) in acetone and purified water (50/50 mix) containing 250 ppm of the surfactant Trem® 014 (polyhydric alcohol esters). The resulting test suspensions were then used in tests A-R. In Tests A-M, compounds were sprayed as a 200 ppm test suspension (equivalent to a rate of 500 g/ha) or as a 40 ppm test suspension to the point of runoff on the test plants. In Tests N-R, compounds were sprayed as a 100 g/ha test suspension (equivalent to a rate of 100 ppm) on the test plants at an application volume of 1000 L/ha. The test suspension was sprayed to the point of run-off on wheat seedlings.

Assay [2] relates to Puccinia recondita f. sp. tritici. Briefly: Test B: wheat leaf rust, preventive spray on wheat seedlings. The following applies: 200 ppm, 100 = 100% disease control, 0 = no control relative to controls; for pest or weed control at 200 ppm: Puccinia recondita, 192 h, read-out: Test B disease control rating.
Description: as §1

Another assay concerns Septoria nodorum. In words: Test C: wheat glume blotch, preventive spray on wheat seedlings. The following applies: 200 ppm, 100 = 100% disease control, 0 = no control relative to controls; for pest or weed control at 200 ppm: Parastagonospora nodorum, 216 h, read-out: Test C disease control rating.
Description: as §1

The next assay deals with Septoria tritici. In words: Test D: wheat leaf blotch, preventive spray on wheat seedlings. Conditions: 200 ppm, 100 = 100% disease control, 0 = no control relative to controls; for pest or weed control at 200 ppm: Zymoseptoria tritici, 504 h, read-out: Test D disease control rating.
Description: as §1

In a further assay the test system is Fusarium graminearum. In words: whole plant or invertebrate. The following applies: for Test E disease control rating: 200 ppm, 100 = 100% disease control, 0 = no control relative to controls; for pest or weed control at 200 ppm: Fusarium graminearum, in Triticum aestivum, 192 h, read-out: Test E disease control rating.
The test system of a further assay is Botrytis cinerea. Briefly: Test F: tomato Botrytis, preventive spray on tomato seedlings. The following applies: 200 ppm, 100 = 100% disease control, 0 = no control relative to controls; for pest or weed control at 200 ppm: Botrytis cinerea, 120 h, read-out: Test F disease control rating.
Description: as §1, with “tomato” for “wheat”

Assay [3] concerns Colletotrichum orbiculare. Briefly: Test I: cucumber Colletotrichum anthracnose, preventive spray on cucumber seedlings. Conditions: 100 = 100% disease control, 0 = no control relative to controls; for Test I disease control rating: 200 ppm; for pest or weed control at 200 ppm: Colletotrichum orbiculare, 144 h, read-out: Test I disease control rating.
Description: as §1, with “cucumber” for “wheat”

`Fc1cccc(Nc2cc(-c3ccnc(NC4CC4)n3)ccn2)c1` [Compound 65]: the “Test A disease control rating” value in assay [1] is 46%. For the same molecule, the “Test B disease control rating” value in assay [2] is recorded as 80%. Moreover, the “Test C disease control rating” value in the assay with Septoria nodorum came out at 96%. For the same molecule, the “Test D disease control rating” value in the assay on Septoria tritici stood at 0%. The “Test E disease control rating” value in the assay with Fusarium graminearum amounted to 0%. Moreover, in the assay on Botrytis cinerea, the “Test F disease control rating” value is on record as 0%. Besides, the “Test I disease control rating” value in assay [3] is on record as 83%.

As to `Clc1cccc(Nc2cc(-c3ccnc(NC4CCOCC4)n3)ccn2)c1` [Compound 69, 4-[2-[(3-chlorophenyl)amino]-4-pyridinyl]-N-(tetrahydro-2H-pyran-4-yl)-2-pyrimidinamine], the pest or weed control at 200 ppm in assay [1] amounted to 91%; in assay [2], 94%; in the assay with Septoria nodorum, 97%; in the assay with Septoria tritici, 77%; in the assay with Fusarium graminearum it was 0%; in the assay on Botrytis cinerea it was 85%. Besides, in assay [3], the pest or weed control at 200 ppm is 0%.

For the molecule `COCC(C)Nc1nccc(-c2ccnc(Nc3c(F)ccc(F)c3F)c2)n1` (stereo not drawn) [Compound 70], the “Test A disease control rating” value in assay [1] was found to be 95%. In addition, the “Test B disease control rating” value in assay [2] is 98%. Moreover, the “Test C disease control rating” value in the assay with Septoria nodorum is recorded as 99%. In addition, the “Test D disease control rating” value with Septoria tritici is on record as 17%. For the same molecule, in the assay on Fusarium graminearum, the “Test E disease control rating” value was 84%. Besides, in the assay on Botrytis cinerea, the “Test F disease control rating” value came to 97%. In assay [3], the “Test I disease control rating” value amounted to 98%.

As to `Fc1cccc(Nc2cc(-c3ccnc(N[C@H]4CCOC4)n3)ccn2)c1` [Compound 71], the “Test A disease control rating” value in assay [1] came to 0%. The “Test B disease control rating” value in assay [2] was found to be 94%. The “Test C disease control rating” value with Septoria nodorum is reported as 99%. Besides, the “Test D disease control rating” value in the assay with Septoria tritici is given as 25%. The “Test E disease control rating” value with Fusarium graminearum was determined as 0%. The “Test F disease control rating” value with Botrytis cinerea came to 77%. Besides, the “Test I disease control rating” value in assay [3] is 46%.

As to `Clc1cccc(Nc2cc(-c3ccnc(N[C@H]4CCOC4)n3)ccn2)c1` [Compound 72], the “Test A disease control rating” value in assay [1] stood at 0%. Besides, in assay [2], the “Test B disease control rating” value worked out at 80%. In addition, in the assay with Septoria nodorum, the “Test C disease control rating” value was determined as 95%. The “Test D disease control rating” value in the assay on Septoria tritici stood at 11%. In addition, in the assay with Fusarium graminearum, the “Test E disease control rating” value was found to be 0%. The “Test F disease control rating” value in the assay with Botrytis cinerea was found to be 0%. Moreover, the “Test I disease control rating” value in assay [3] was determined as 0%.

On to `Fc1cccc(Nc2cc(-c3ccnc(NC4CCOC4)n3)ccn2)c1` (stereo not drawn) [Compound 74], for which the “Test A disease control rating” value in assay [1] is 0%. For the same molecule, the “Test B disease control rating” value in assay [2] is on record as 94%. In addition, the “Test C disease control rating” value with Septoria nodorum came out at 99%. Also, the “Test D disease control rating” value in the assay on Septoria tritici was determined as 72%. In the assay on Fusarium graminearum, the “Test E disease control rating” value came out at 0%. The “Test F disease control rating” value with Botrytis cinerea was determined as 48%. Further, the “Test I disease control rating” value in assay [3] is on record as 17%.

`Fc1cccc(Nc2cc(-c3ccnc(NC4CCCOC4)n3)ccn2)c1` (stereo not drawn) [Compound 75]: the “Test A disease control rating” value in assay [1] is listed as 0%. The “Test B disease control rating” value in assay [2] is 83%. Further, the “Test C disease control rating” value in the assay with Septoria nodorum stood at 89%. The “Test D disease control rating” value in the assay with Septoria tritici was 28%. The “Test E disease control rating” value in the assay on Fusarium graminearum is listed as 0%. Moreover, the “Test F disease control rating” value in the assay on Botrytis cinerea was 90%. In addition, in assay [3], the “Test I disease control rating” value was 9%.

Take `COCC(C)Nc1nccc(-c2ccnc(Nc3c(C)cccc3Cl)c2)n1` (stereo not drawn) [Compound 76, 4-[2-[(2-chloro-6-methylphenyl)amino]-4-pyridinyl]-N-(2-methoxy-1-methylethyl)-2-pyrimidinamine]: the pest or weed control at 200 ppm in assay [1] was 36%; in assay [2], 99%; with Septoria nodorum it was 99%; in the assay with Septoria tritici, 87%; in the assay on Fusarium graminearum it was 93%; in the assay on Botrytis cinerea it was 97%. Further, in assay [3], the pest or weed control at 200 ppm was determined as 72%.

As to `COCC(C)Nc1nccc(-c2ccnc(Nc3c(C)cccc3C)c2)n1` (stereo not drawn) [Compound 77], the “Test A disease control rating” value in assay [1] is listed as 95%. Further, in assay [2], the “Test B disease control rating” value stood at 99%. For the same molecule, the “Test C disease control rating” value with Septoria nodorum amounted to 99%. In addition, in the assay on Septoria tritici, the “Test D disease control rating” value stood at 61%. In the assay with Fusarium graminearum, the “Test E disease control rating” value is 92%. In addition, the “Test F disease control rating” value in the assay with Botrytis cinerea was determined as 88%. For the same molecule, the “Test I disease control rating” value in assay [3] is 96%.

On to `COCC(C)Nc1nccc(-c2ccnc(Nc3c(Cl)cccc3Cl)c2)n1` (stereo not drawn) [Compound 78], for which the “Test A disease control rating” value in assay [1] was 39%. Besides, the “Test B disease control rating” value in assay [2] came to 99%. In the assay on Septoria nodorum, the “Test C disease control rating” value was 99%. Moreover, in the assay on Septoria tritici, the “Test D disease control rating” value is on record as 60%. Also, the “Test E disease control rating” value with Fusarium graminearum is 0%. Moreover, the “Test F disease control rating” value in the assay with Botrytis cinerea turned out to be 93%. The “Test I disease control rating” value in assay [3] amounted to 98%.

Turning to `COCC(C)Nc1nccc(-c2ccnc(Nc3c(F)cccc3Cl)c2)n1` (stereo not drawn) [Compound 79], in assay [1], the “Test A disease control rating” value is 0%. Also, the “Test B disease control rating” value in assay [2] came out at 99%. For the same molecule, the “Test C disease control rating” value with Septoria nodorum worked out at 99%. The “Test D disease control rating” value in the assay with Septoria tritici was 5%. For the same molecule, the “Test E disease control rating” value in the assay on Fusarium graminearum is 0%. Also, in the assay on Botrytis cinerea, the “Test F disease control rating” value is listed as 94%. For the same molecule, in assay [3], the “Test I disease control rating” value was found to be 96%.

As to `Cc1cccc(Cl)c1Nc1cc(-c2ccnc(NC3CCOCC3)n2)ccn1` [Compound 80, 4-[2-[(2-chloro-6-methylphenyl)amino]-4-pyridinyl]-N-(tetrahydro-2H-pyran-4-yl)-2-pyrimidinamine], the pest or weed control at 200 ppm was 86% in assay [1]; 100% in assay [2]; 99% with Septoria nodorum; 93% in the assay on Septoria tritici; 98% in the assay with Fusarium graminearum; 99% in the assay on Botrytis cinerea. Also, the pest or weed control at 200 ppm in assay [3] was 98%.

As for `Fc1cccc(Nc2cc(-c3ccnc(NCC4CCOC4)n3)ccn2)c1` (stereo not drawn) [Compound 82, 4-[2-[(3-fluorophenyl)amino]-4-pyridinyl]-N-[(tetrahydro-3-furanyl)methyl]-2-pyrimidinamine], the pest or weed control at 200 ppm in assay [1] turned out to be 0%; in assay [2], 98%; in the assay on Septoria nodorum, 91%; in the assay with Septoria tritici, 68%; in the assay on Fusarium graminearum, 0%; in the assay with Botrytis cinerea, 0%. For the same molecule, the pest or weed control at 200 ppm in assay [3] came to 29%.

As for `Fc1cccc(Nc2cc(-c3ccnc(NCC4CCCO4)n3)ccn2)c1` (stereo not drawn) [Compound 83, 4-[2-[(3-fluorophenyl)amino]-4-pyridinyl]-N-[(tetrahydro-2-furanyl)methyl]-2-pyrimidinamine], the pest or weed control at 200 ppm in assay [1] was found to be 0%; in assay [2], 95%; in the assay on Septoria nodorum, 99%; in the assay on Septoria tritici it was 92%; in the assay with Fusarium graminearum, 0%; with Botrytis cinerea, 53%. In addition, the pest or weed control at 200 ppm in assay [3] stood at 0%.

Take `COCCC(C)Nc1nccc(-c2ccnc(Nc3cccc(F)c3)c2)n1` (stereo not drawn) [Compound 84, 4-[2-[(3-fluorophenyl)amino]-4-pyridinyl]-N-(3-methoxy-1-methylpropyl)-2-pyrimidinamine]: the pest or weed control at 200 ppm in assay [1] was 28%; in assay [2], 91%; with Septoria nodorum, 99%; with Septoria tritici, 59%; in the assay on Fusarium graminearum it was 0%; in the assay with Botrytis cinerea it was 99%. For the same molecule, in assay [3], the pest or weed control at 200 ppm stood at 0%.
